Data taken from ChEMBL document CHEMBL1145076, “Synthesis and activity of new aryl- and heteroaryl-substituted pyrazole inhibitors of the transforming growth factor-beta type I receptor kinase domain” (J Med Chem, 2003).

What was measured:
TGF-beta receptor type-1 [1] = target: T1, TGF-beta receptor type-1 (Homo sapiens, UniProt P36897); assay: In vitro inhibitory activity against human Transforming growth factor beta-1 receptor kinase (TGF-beta RIK)
T1 sequence (P36897 whole entry): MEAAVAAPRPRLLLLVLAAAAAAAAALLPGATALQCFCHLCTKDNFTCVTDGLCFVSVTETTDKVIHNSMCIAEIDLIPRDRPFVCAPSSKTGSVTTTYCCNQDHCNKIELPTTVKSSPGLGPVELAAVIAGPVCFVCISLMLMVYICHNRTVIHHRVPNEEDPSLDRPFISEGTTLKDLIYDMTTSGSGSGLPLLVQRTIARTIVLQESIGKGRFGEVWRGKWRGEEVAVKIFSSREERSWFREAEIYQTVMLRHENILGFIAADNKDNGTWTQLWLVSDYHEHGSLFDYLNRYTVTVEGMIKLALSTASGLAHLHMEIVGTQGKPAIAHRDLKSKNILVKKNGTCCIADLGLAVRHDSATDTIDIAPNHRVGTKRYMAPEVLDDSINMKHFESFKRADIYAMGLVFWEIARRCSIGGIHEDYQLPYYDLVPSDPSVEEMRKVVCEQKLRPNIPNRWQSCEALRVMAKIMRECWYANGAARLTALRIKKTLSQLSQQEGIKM

[2] = target: Mitogen-activated protein kinase 14 (Homo sapiens, UniProt Q16539); assay: In vitro inhibitory activity against Mitogen-activated protein kinase p38
TGF-beta receptor type-1 [3] = target: T1, TGF-beta receptor type-1; assay: In vitro inhibition of transforming growth factor- beta dependent luciferase growth in mouse fibroblasts (NIH 3T3); format: functional; conditions: target entry is the homologue from another species
TGF-beta receptor type-1 [4] = target: T1, TGF-beta receptor type-1; assay: In vitro inhibition of transforming growth factor- beta dependent luciferase production in mink lung cells (p3TP Lux); format: functional, cell-based

Sequence of Mitogen-activated protein kinase 14 (Q16539 whole entry): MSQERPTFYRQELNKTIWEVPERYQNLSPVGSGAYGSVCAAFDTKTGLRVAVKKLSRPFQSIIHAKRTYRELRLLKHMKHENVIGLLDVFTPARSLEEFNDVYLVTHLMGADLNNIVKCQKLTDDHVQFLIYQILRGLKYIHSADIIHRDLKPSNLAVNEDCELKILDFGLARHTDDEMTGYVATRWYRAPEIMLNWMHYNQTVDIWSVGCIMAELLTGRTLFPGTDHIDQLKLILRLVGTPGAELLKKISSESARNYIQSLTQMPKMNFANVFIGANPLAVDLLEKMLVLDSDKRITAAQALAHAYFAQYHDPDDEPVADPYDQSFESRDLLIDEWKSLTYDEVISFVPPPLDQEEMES

SMILES	IC50 (TGF-beta receptor type-1 [1]) [µM]	IC50 [2] [µM]	IC50 (TGF-beta receptor type-1 [3]) [µM]	IC50 (TGF-beta receptor type-1 [4]) [µM]
c1ccc(-c2c[nH]nc2-c2ccnc3ccccc23)nc1	0.15	7.7	1.68	0.683
Fc1ccc(-c2c[nH]nc2-c2ccccn2)cc1	0.275	6.8	2.59	3.53
Cc1cccc(-c2[nH]ncc2-c2ccc(Cl)cc2)n1	0.057	> 20	0.421	0.551
FC(F)(F)c1cccc(-c2n[nH]cc2-c2ccnc3ccccc23)c1	0.217	0.0068	0.524	0.355
Cc1cccc(-c2n[nH]cc2-c2ccc(O)cc2)n1	0.031	0.56	0.032	0.044
Brc1cccc(-c2n[nH]cc2-c2ccnc3ccccc23)n1	0.031	0.11	0.0012	0.0029
Cc1cccc(-c2n[nH]cc2-c2ccc(F)cc2)n1	0.07	> 20	0.041	0.139
c1ccc(-c2n[nH]cc2-c2ccnc3ccccc23)cc1	0.382	0.025	2.92	1.2
c1ccc(Cn2cc(-c3ccnc4ccccc34)c(-c3ccccn3)n2)cc1	0.369	0.51	1.34	0.399
c1ccc(-c2n[nH]cc2-c2ccnc3ccccc23)nc1	–	0.74	–	–
Cc1cccc(-c2n[nH]cc2-c2ccnc3ccccc23)n1	0.034	0.078	0.0071	0.0029
c1csc(-c2n[nH]cc2-c2ccnc3ccccc23)c1	0.353	0.4	2.81	1.66
c1ccc(-c2n[nH]c(C3CC3)c2-c2ccnc3ccccc23)nc1	0.203	0.28	0.538	0.094

More lines, in order of falling IC50 (TGF-beta receptor type-1 [1]), values ahead:

IC50 (TGF-beta receptor type-1 [1]) [µM]	IC50 [2] [µM]	IC50 (TGF-beta receptor type-1 [3]) [µM]	IC50 (TGF-beta receptor type-1 [4]) [µM]	SMILES
3.99	> 20	9.54	> 9	c1ccc(-c2c[nH]nc2-c2ccccn2)cc1
1.76	2.3	4.67	> 10	Clc1ccc(-c2n[nH]cc2-c2ccnc3ccccc23)nc1
0.543	> 20	2.16	3.37	Cc1cccc(-c2n[nH]cc2-c2ccccc2)n1
0.151	> 20	0.683	0.788	Cc1cccc(-c2[nH]ncc2-c2ccc(F)c(F)c2)n1
0.091	1.3	0.076	0.094	Fc1ccc(-c2n[nH]cc2-c2ccnc3ccccc23)nc1
0.082	0.25	0.148	0.024	Cc1cccc(-c2n[nH]c(C)c2-c2ccnc3ccccc23)n1
0.044	5.4	0.061	0.047	COc1ccc(-c2cn(C)nc2-c2cccc(C)n2)cc1
